Laboratory results: patent publication US20230159510A1, “NOVEL PRMT5 INHIBITORS” (AMGEN INC., priority 2020, published 2023)
Where two headings read alike, the source gives them in different places.

Experiments:
HCT116 WT cells = assay: HCT116 proliferation assay, WT cells (CellTiter-Glo, 6 days); format: cell-based; conditions: read-out: Prolif_HCT116-WT IC50
Outline: (§1)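 Compound titrations (top dose 1 or 10 µM, 1:3 dilution, 8 or 9 concentrations) and a DMSO control were applied to cells cultured overnight beforehand in RPMI 1640 with 10% FBS at 37° C, 5% CO2; viability was scored from luminescence.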

HCT116 MTAP null cells = assay: HCT116 proliferation assay, MTAP null cells (CellTiter-Glo, 6 days); format: cell-based; conditions: HCT116-MTAP null, 144 h, read-out: Protif_ HCT116-MTAP null IC50
Outline: as §1

PRMT5/MEP50 = PRMT5/MEP50 (Homo sapiens, UniProt O14744); assay: MTase-Glo methyl transferase assay, Method B (FL-Histone H2A, 1 µM MTA, 1 h pre-incubation); format: biochemical; design: purchased Reaction Biology Corp RD-11-292; conditions: read-out: PRMT5 MTase Glo Ki (nM, Meth. B)
Chain of PRMT5/MEP50 (O14744 2-637 limits assumed): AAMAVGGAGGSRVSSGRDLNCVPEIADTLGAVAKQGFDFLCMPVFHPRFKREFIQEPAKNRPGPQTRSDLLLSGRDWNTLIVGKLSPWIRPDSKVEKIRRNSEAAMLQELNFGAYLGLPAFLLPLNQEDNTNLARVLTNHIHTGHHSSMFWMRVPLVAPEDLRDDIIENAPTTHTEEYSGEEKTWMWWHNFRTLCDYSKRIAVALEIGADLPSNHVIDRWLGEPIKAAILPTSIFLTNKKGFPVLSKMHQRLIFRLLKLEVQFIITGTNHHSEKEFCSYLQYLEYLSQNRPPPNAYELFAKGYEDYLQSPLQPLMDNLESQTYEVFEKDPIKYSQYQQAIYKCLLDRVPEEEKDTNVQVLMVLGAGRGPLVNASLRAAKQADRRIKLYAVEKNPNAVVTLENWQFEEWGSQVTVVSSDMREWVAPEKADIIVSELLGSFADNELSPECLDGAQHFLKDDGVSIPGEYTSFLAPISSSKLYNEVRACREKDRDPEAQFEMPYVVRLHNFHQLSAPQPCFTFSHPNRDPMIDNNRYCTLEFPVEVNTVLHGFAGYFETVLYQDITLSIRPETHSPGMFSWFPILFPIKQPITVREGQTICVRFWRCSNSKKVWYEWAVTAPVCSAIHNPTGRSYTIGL
Chain of PRMT5/MEP50 (Q9BQA1 2-342 partner limits assumed): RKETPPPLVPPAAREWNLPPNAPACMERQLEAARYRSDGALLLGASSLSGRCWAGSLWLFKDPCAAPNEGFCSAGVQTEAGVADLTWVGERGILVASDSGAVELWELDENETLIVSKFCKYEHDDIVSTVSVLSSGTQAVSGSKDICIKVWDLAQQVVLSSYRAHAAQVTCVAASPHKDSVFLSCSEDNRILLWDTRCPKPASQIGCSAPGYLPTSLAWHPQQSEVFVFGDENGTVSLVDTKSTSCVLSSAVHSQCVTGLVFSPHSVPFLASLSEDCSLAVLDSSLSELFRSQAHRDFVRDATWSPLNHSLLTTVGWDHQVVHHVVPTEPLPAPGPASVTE
Outline: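 PRMT5/MEP50 (4 nM) was pre-incubated 1 h with compound, 5 µM SAM and 1 µM MTA, then started with 2.5 µM FL-Histone H2A in Tris pH 8.0 buffer. After 20 h at room temperature, SAH was detected by MTase-Glo luminescence, and IC50/KI were fitted from dose-response curves.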

| Structure (SMILES) | IC50 (HCT116 WT cells; Homo sapiens, HCT-116, 144 h) | IC50 (HCT116 MTAP null cells) | Ki (PRMT5/MEP50) | IC50 (HCT116 WT cells) |
| --- | --- | --- | --- | --- |
| Cc1cc2cc(C(=O)N(Cc3ccc(C(F)(F)F)cn3)CC(C)C#N)ccc2nc1N (stereo not drawn) [Example 694, 2-amino-N-(2-cyanopropyl)-3-methyl-N-[[5-(trifluoromethyl)-2-pyridyl]methyl] quinoline-6-carboxamide] | 8600 nM | 224 nM | 5.62 nM | – |
| Cc1cc2cc(C(=O)N(Cc3ccc(C#N)cn3)C3CCCC3C#N)c(F)cc2nc1N (stereo not drawn) [Example 703, 2-amino-N-(2-cyanocyclopentyl)-N-[(5-cyano-2-pyridyl)methyl] -7-fluoro-3-methyl-quinoline-6-carboxamide] | 2300 nM | 222 nM | 5.62 nM | – |
| Cc1cc2cc(C(=O)N(Cc3ccc(C(F)(F)F)cn3)C3CC3C3CC3)ccc2nc1N (stereo not drawn) [Example 705, 2-amino-N-(2-cyclopropylcyclopropyl)-3-methyl-N-[[5-(trifluoromethyl)-2-pyridyl]methyl] quinoline-6-carboxamide] | > 1000 nM | 760 nM | 9.63 nM | – |
| Cc1cc(N)nc2ccc(C(=O)N(Cc3ccc(C(F)(F)F)cn3)Cc3ccn(C)n3)cc12 [Example 709, 2-amino-4-methyl-N-[(1-methylpyrazol-3-yl)methyl]-N-[[5-(trifluoromethyl)-2-pyridyl]methyl] quinoline-6-carboxamide] | 1430 nM | 334 nM | 2.97 nM | – |
| Cc1cc(N)nc2ccc(C(=O)N(Cc3ccc(C(F)(F)F)cn3)Cc3ncn(C)n3)cc12 [Example 710, 2-amino-4-methyl-N-[(1-methyl-1,2,4-triazol-3-yl)methyl]-N-[[5-(trifluoromethyl)-2-pyridyl]methyl] quinoline-6-carboxamide] | 1140 nM | 177 nM | 4.13 nM | – |

These reach a lower IC50 (HCT116 MTAP null cells). Values come first.

| IC50 (HCT116 WT cells; Homo sapiens, HCT-116, 144 h) | IC50 (HCT116 MTAP null cells) | Ki (PRMT5/MEP50) | IC50 (HCT116 WT cells) | Structure (SMILES) |
| --- | --- | --- | --- | --- |
| > 1000 nM | 155 nM | 2.79 nM | – | Cc1csc(CN(Cc2ccc(C(F)(F)F)cn2)C(=O)c2ccc3nc(N)c(C)cc3c2)n1 [Example 708, 2-amino-3-methyl-N-[(4-methylthiazol-2-yl)methyl]-N-[[5-(trifluoromethyl)-2-pyridyl]methyl]quinoline-6-carboxamide] |
| – | 80 nM | 25.1 nM | > 1000 nM | CO[C@@H]1COCC[C@H]1N(Cc1ccc(C(F)(F)F)cn1)C(=O)c1ccc2nc(N)c(C)cc2c1 [Example 704, 2-amino-N-[(3 S,4R)-3-methoxytetrahydropyran-4-yl]-3-methyl-N-[[5-(trifluoromethyl)-2-pyridyl]methyl] quinoline-6-carboxamide] |
| > 1000 nM | 50 nM | 3.86 nM | – | Cc1cc2cc(C(=O)N(Cc3ccc(C(F)(F)F)cn3)C3CCCC3C#N)ccc2nc1N (stereo not drawn) [Example 699, 2-amino-N-(2-cyanocyclopentyl)-3-methyl-N-[[5-(trifluoromethyl)-2-pyridyl]methyl] quinoline-6-carboxamide] |
| 560 nM | 46 nM | 5.12 nM | – | Cc1cc2cc(C(=O)N(Cc3ccc(C(F)(F)F)cn3)C3CCCC3C#N)c(F)cc2nc1N (stereo not drawn) [Example 702, 2-amino-N-(2-cyanocyclopentyl)-7-fluoro-3-methyl-N-[[5-(trifluoromethyl)-2-pyridyl]methyl] quinoline-6-carboxamide] |
